Laboratory results: PubChem BioAssay (NCI)
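Method: 48-hour compound exposure of cells in 96-well plates, five concentrations, linear interpolation of endpoints. At the TGI there is no net growth.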

System: NCI-H226 lung
Experiment: DTP human tumour cell line panel, 48 h

SMILES | TGI
CCOC(=O)C1C(O)CC2c3ccccc3-c3ccccc3C21 (stereo unspecified) | 60.1 µM
CC/C=C/C[C@H](O[Si](C)(C)C(C)(C)C)[C@H]1C[C@H]2O[C@H]([C@@H](O)C#C[Si](C)(C)C)C[C@H]2O1 | 20.6 µM
COc1ccc(NC2=NCCO2)c2c1CCCC2 | 65.3 µM
O=c1cc(-c2ccccc2)c2ccc(O)c(CN(CCCl)CCCl)c2o1 | 32.5 µM
CC1=C(O)C(=O)C(C2=C(O)C(=O)C(C)=C(O)C2=O)=C(O)C1=O | > 100 µM

System: NCI-H23 lung
Experiment: DTP human tumour cell line panel, 48 h

SMILES | TGI
CCOC(=O)C1C(O)CC2c3ccccc3-c3ccccc3C21 (stereo unspecified) | > 100 µM
CC/C=C/C[C@H](O[Si](C)(C)C(C)(C)C)[C@H]1C[C@H]2O[C@H]([C@@H](O)C#C[Si](C)(C)C)C[C@H]2O1 | 24.7 µM
COc1ccc(NC2=NCCO2)c2c1CCCC2 | 87.9 µM
O=c1cc(-c2ccccc2)c2ccc(O)c(CN(CCCl)CCCl)c2o1 | 41.7 µM
CC1=C(O)C(=O)C(C2=C(O)C(=O)C(C)=C(O)C2=O)=C(O)C1=O | > 100 µM

System: NCI-H460 lung
Experiment: DTP human tumour cell line panel, 48 h

SMILES | TGI
CCOC(=O)C1C(O)CC2c3ccccc3-c3ccccc3C21 (stereo unspecified) | > 100 µM
CC/C=C/C[C@H](O[Si](C)(C)C(C)(C)C)[C@H]1C[C@H]2O[C@H]([C@@H](O)C#C[Si](C)(C)C)C[C@H]2O1 | 36 µM
COc1ccc(NC2=NCCO2)c2c1CCCC2 | > 100 µM
O=c1cc(-c2ccccc2)c2ccc(O)c(CN(CCCl)CCCl)c2o1 | > 100 µM
CC1=C(O)C(=O)C(C2=C(O)C(=O)C(C)=C(O)C2=O)=C(O)C1=O | > 100 µM

System: NCI-H522 lung
Experiment: DTP human tumour cell line panel, 48 h

SMILES | TGI
CCOC(=O)C1C(O)CC2c3ccccc3-c3ccccc3C21 (stereo unspecified) | > 100 µM
CC/C=C/C[C@H](O[Si](C)(C)C(C)(C)C)[C@H]1C[C@H]2O[C@H]([C@@H](O)C#C[Si](C)(C)C)C[C@H]2O1 | 11.9 µM
COc1ccc(NC2=NCCO2)c2c1CCCC2 | > 100 µM
O=c1cc(-c2ccccc2)c2ccc(O)c(CN(CCCl)CCCl)c2o1 | 35.7 µM
CC1=C(O)C(=O)C(C2=C(O)C(=O)C(C)=C(O)C2=O)=C(O)C1=O | > 100 µM

System: NCI/ADR-RES ovarian
Experiment: DTP human tumour cell line panel, 48 h

SMILES | TGI
CCOC(=O)C1C(O)CC2c3ccccc3-c3ccccc3C21 (stereo unspecified) | > 100 µM
CC/C=C/C[C@H](O[Si](C)(C)C(C)(C)C)[C@H]1C[C@H]2O[C@H]([C@@H](O)C#C[Si](C)(C)C)C[C@H]2O1 | 26.3 µM
COc1ccc(NC2=NCCO2)c2c1CCCC2 | > 100 µM
O=c1cc(-c2ccccc2)c2ccc(O)c(CN(CCCl)CCCl)c2o1 | > 100 µM
CC1=C(O)C(=O)C(C2=C(O)C(=O)C(C)=C(O)C2=O)=C(O)C1=O | > 100 µM

System: OVCAR-3 ovarian
Experiment: DTP human tumour cell line panel, 48 h

SMILES | TGI
CCOC(=O)C1C(O)CC2c3ccccc3-c3ccccc3C21 (stereo unspecified) | > 100 µM
CC/C=C/C[C@H](O[Si](C)(C)C(C)(C)C)[C@H]1C[C@H]2O[C@H]([C@@H](O)C#C[Si](C)(C)C)C[C@H]2O1 | 30.2 µM
COc1ccc(NC2=NCCO2)c2c1CCCC2 | > 100 µM
O=c1cc(-c2ccccc2)c2ccc(O)c(CN(CCCl)CCCl)c2o1 | 40.4 µM
CC1=C(O)C(=O)C(C2=C(O)C(=O)C(C)=C(O)C2=O)=C(O)C1=O | > 100 µM

System: OVCAR-4 ovarian
Experiment: DTP human tumour cell line panel, 48 h

SMILES | TGI
CCOC(=O)C1C(O)CC2c3ccccc3-c3ccccc3C21 (stereo unspecified) | > 100 µM
CC/C=C/C[C@H](O[Si](C)(C)C(C)(C)C)[C@H]1C[C@H]2O[C@H]([C@@H](O)C#C[Si](C)(C)C)C[C@H]2O1 | 23.1 µM
COc1ccc(NC2=NCCO2)c2c1CCCC2 | > 100 µM
O=c1cc(-c2ccccc2)c2ccc(O)c(CN(CCCl)CCCl)c2o1 | > 100 µM
CC1=C(O)C(=O)C(C2=C(O)C(=O)C(C)=C(O)C2=O)=C(O)C1=O | > 100 µM

System: OVCAR-5 ovarian
Experiment: DTP human tumour cell line panel, 48 h

SMILES | TGI
CCOC(=O)C1C(O)CC2c3ccccc3-c3ccccc3C21 (stereo unspecified) | > 100 µM
CC/C=C/C[C@H](O[Si](C)(C)C(C)(C)C)[C@H]1C[C@H]2O[C@H]([C@@H](O)C#C[Si](C)(C)C)C[C@H]2O1 | 27.3 µM
COc1ccc(NC2=NCCO2)c2c1CCCC2 | > 100 µM
O=c1cc(-c2ccccc2)c2ccc(O)c(CN(CCCl)CCCl)c2o1 | 34.1 µM
CC1=C(O)C(=O)C(C2=C(O)C(=O)C(C)=C(O)C2=O)=C(O)C1=O | > 100 µM

System: OVCAR-8 ovarian
Experiment: DTP human tumour cell line panel, 48 h

SMILES | TGI
CCOC(=O)C1C(O)CC2c3ccccc3-c3ccccc3C21 (stereo unspecified) | 48.1 µM
CC/C=C/C[C@H](O[Si](C)(C)C(C)(C)C)[C@H]1C[C@H]2O[C@H]([C@@H](O)C#C[Si](C)(C)C)C[C@H]2O1 | 27.9 µM
COc1ccc(NC2=NCCO2)c2c1CCCC2 | > 100 µM
O=c1cc(-c2ccccc2)c2ccc(O)c(CN(CCCl)CCCl)c2o1 | 48.2 µM
CC1=C(O)C(=O)C(C2=C(O)C(=O)C(C)=C(O)C2=O)=C(O)C1=O | > 100 µM

System: PC-3 prostate
Experiment: DTP human tumour cell line panel, 48 h

SMILES | TGI
CCOC(=O)C1C(O)CC2c3ccccc3-c3ccccc3C21 (stereo unspecified) | > 100 µM
CC/C=C/C[C@H](O[Si](C)(C)C(C)(C)C)[C@H]1C[C@H]2O[C@H]([C@@H](O)C#C[Si](C)(C)C)C[C@H]2O1 | 26.2 µM
COc1ccc(NC2=NCCO2)c2c1CCCC2 | > 100 µM
O=c1cc(-c2ccccc2)c2ccc(O)c(CN(CCCl)CCCl)c2o1 | 36.8 µM
CC1=C(O)C(=O)C(C2=C(O)C(=O)C(C)=C(O)C2=O)=C(O)C1=O | > 100 µM

System: RPMI-8226 leukemia
Experiment: DTP human tumour cell line panel, 48 h

SMILES | TGI
CCOC(=O)C1C(O)CC2c3ccccc3-c3ccccc3C21 (stereo unspecified) | > 100 µM
CC/C=C/C[C@H](O[Si](C)(C)C(C)(C)C)[C@H]1C[C@H]2O[C@H]([C@@H](O)C#C[Si](C)(C)C)C[C@H]2O1 | 37.6 µM
COc1ccc(NC2=NCCO2)c2c1CCCC2 | 87 µM
O=c1cc(-c2ccccc2)c2ccc(O)c(CN(CCCl)CCCl)c2o1 | 47.8 µM
CC1=C(O)C(=O)C(C2=C(O)C(=O)C(C)=C(O)C2=O)=C(O)C1=O | > 100 µM

System: RXF 393 renal
Experiment: DTP human tumour cell line panel, 48 h

SMILES | TGI
CCOC(=O)C1C(O)CC2c3ccccc3-c3ccccc3C21 (stereo unspecified) | > 100 µM
CC/C=C/C[C@H](O[Si](C)(C)C(C)(C)C)[C@H]1C[C@H]2O[C@H]([C@@H](O)C#C[Si](C)(C)C)C[C@H]2O1 | 20.4 µM
COc1ccc(NC2=NCCO2)c2c1CCCC2 | 86.2 µM
O=c1cc(-c2ccccc2)c2ccc(O)c(CN(CCCl)CCCl)c2o1 | 30.1 µM
CC1=C(O)C(=O)C(C2=C(O)C(=O)C(C)=C(O)C2=O)=C(O)C1=O | > 100 µM

System: SF-268 CNS
Experiment: DTP human tumour cell line panel, 48 h

SMILES | TGI
CCOC(=O)C1C(O)CC2c3ccccc3-c3ccccc3C21 (stereo unspecified) | > 100 µM
CC/C=C/C[C@H](O[Si](C)(C)C(C)(C)C)[C@H]1C[C@H]2O[C@H]([C@@H](O)C#C[Si](C)(C)C)C[C@H]2O1 | 27.4 µM
O=c1cc(-c2ccccc2)c2ccc(O)c(CN(CCCl)CCCl)c2o1 | 44.5 µM
CC1=C(O)C(=O)C(C2=C(O)C(=O)C(C)=C(O)C2=O)=C(O)C1=O | > 100 µM

System: SF-295 CNS
Experiment: DTP human tumour cell line panel, 48 h

SMILES | TGI
CCOC(=O)C1C(O)CC2c3ccccc3-c3ccccc3C21 (stereo unspecified) | > 100 µM
CC/C=C/C[C@H](O[Si](C)(C)C(C)(C)C)[C@H]1C[C@H]2O[C@H]([C@@H](O)C#C[Si](C)(C)C)C[C@H]2O1 | 27.5 µM
COc1ccc(NC2=NCCO2)c2c1CCCC2 | > 100 µM
O=c1cc(-c2ccccc2)c2ccc(O)c(CN(CCCl)CCCl)c2o1 | 29.7 µM
CC1=C(O)C(=O)C(C2=C(O)C(=O)C(C)=C(O)C2=O)=C(O)C1=O | > 100 µM

System: SF-539 CNS
Experiment: DTP human tumour cell line panel, 48 h

SMILES | TGI
COc1ccc(NC2=NCCO2)c2c1CCCC2 | > 100 µM
O=c1cc(-c2ccccc2)c2ccc(O)c(CN(CCCl)CCCl)c2o1 | 44.4 µM
